Results published in patent publication US10287251B2, “Pyrazole derivative or pharmaceutically acceptable salt thereof” (KISSEI PHARMACEUTICAL CO., LTD., priority 2015, dated 2019).

Each compound was assayed against T1, TRPM8 (Rattus norvegicus, UniProt Q8R455) (assay: Confirmation test of inhibitory effects on icilin-induced wet-dog shakes). Conditions: female SD rats, oral dose 0.3 mg/kg, icilin 1 mg/kg i.p. 1 hour after dosing, shakes counted for 5 minutes.
T1 construct: from tissue; host or cells: whole animal, female SD rats (in vivo)
Assay type: in vivo
Text: Further, TRPM8 inhibitory activity can be evaluated by the efficacy inhibiting the wet-dog shake action which is induced by the administration of Icilin, TRPM8 agonist. Furthermore, an effect on overactive bladder (OAB) can be evaluated by an elongation of micturition interval against overactive bladder induced by acetic acid in accordance with a similar method described in J. Urol., 2001, 166, 1142.
Confirmation Test of Inhibitory Effects on Icilin-induced Wet-dog Shakes
Test compounds were dissolved in dimethylacetamide (wako), and 0.5% methylcellulose solution (wako) was added to make the solution or suspension containing 5% of dimethylacetatnide. At a dose of 0.3 to 10 mg/kg/5mL of test compounds were orally administered to female SD rats. After 1 hour, wet-dog shakes were induced by the intraperitoneal injection of icilin (1 mg/kg) which was dissolved in polyethylene glycol 400 (wako). From 5 minutes after the administration of icilin, wet-dog shakes were counted for 5 minutes. For control example, vehicle (a mixture of dimethylacetamide (wako): 0.5% methylcellulose (wako)=5:95) was administrated similarly, and the number of wet-dog shakes was counted in the same manner. A percent inhibition of wet-dog shakes by test compound was calculated from the following formula: [1-(test compound wet-dog shake count/vehicle wet-dog shake count)]×100.

T1 sequence (Q8R455 whole entry): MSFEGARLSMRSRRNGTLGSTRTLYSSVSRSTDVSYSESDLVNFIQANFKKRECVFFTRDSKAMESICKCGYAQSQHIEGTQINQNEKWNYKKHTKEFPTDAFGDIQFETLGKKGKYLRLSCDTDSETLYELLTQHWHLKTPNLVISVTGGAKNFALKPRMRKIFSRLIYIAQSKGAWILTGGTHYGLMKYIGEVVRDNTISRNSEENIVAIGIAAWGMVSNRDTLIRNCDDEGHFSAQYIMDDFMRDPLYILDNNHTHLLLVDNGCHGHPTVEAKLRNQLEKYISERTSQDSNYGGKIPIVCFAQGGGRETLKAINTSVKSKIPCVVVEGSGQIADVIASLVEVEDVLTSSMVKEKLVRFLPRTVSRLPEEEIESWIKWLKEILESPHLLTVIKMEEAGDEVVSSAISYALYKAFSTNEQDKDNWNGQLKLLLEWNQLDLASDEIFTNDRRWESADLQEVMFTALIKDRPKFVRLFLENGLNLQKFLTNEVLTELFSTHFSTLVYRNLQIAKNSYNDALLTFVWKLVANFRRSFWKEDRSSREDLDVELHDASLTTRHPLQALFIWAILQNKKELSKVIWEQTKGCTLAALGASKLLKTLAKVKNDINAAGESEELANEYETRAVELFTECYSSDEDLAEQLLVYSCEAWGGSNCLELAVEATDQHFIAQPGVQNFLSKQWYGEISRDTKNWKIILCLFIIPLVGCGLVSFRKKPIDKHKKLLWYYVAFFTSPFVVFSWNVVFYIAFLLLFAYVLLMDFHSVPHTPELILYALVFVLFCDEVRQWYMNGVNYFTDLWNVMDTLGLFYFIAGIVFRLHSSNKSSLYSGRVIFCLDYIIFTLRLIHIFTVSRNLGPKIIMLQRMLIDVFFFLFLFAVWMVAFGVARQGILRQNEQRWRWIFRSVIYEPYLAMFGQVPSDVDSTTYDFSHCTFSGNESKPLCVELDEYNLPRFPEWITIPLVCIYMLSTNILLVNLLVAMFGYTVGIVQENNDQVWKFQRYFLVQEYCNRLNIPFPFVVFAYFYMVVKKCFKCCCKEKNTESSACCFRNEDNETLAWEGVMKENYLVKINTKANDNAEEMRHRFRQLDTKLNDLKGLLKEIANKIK

| SMILES | % inhibition of Wet-Dog Shake [%] |
| --- | --- |
| CO[C@H](CO)[C@@H](Cc1ccccn1)NC(=O)c1ccccc1-c1cc(-c2ccc(F)cc2)[nH]n1 [Example 43-13] | 90 |
| O=C(N[C@H](Cc1ncccc1F)[C@H](F)CO)c1cccc(F)c1-c1cc(-c2ccc(F)cc2)[nH]n1 [Example 43-41] | 54 |
| CO[C@H](CO)[C@@H](Cc1ccccn1)NC(=O)c1ccccc1-c1n[nH]c(-c2ccc(F)cc2)c1F [Example 43-5] | 98 |

Same assay, conditions: female SD rats, oral dose 1 mg/kg, icilin 1 mg/kg i.p. 1 hour after dosing, shakes counted for 5 minutes

| SMILES | % inhibition of Wet-Dog Shake [%] |
| --- | --- |
| CO[C@H](CO)[C@@H](Cc1ncccn1)NC(=O)c1cccc(F)c1-c1n[nH]c(-c2ccc(F)cc2)c1F [Example 27-18] | 86 |
| CC(C)(O)[C@@H](Cc1ccccn1)NC(=O)c1cccc(F)c1-c1n[nH]c(-c2ccc(F)cc2)c1F [Example 33-2] | 88 |
| O=C(N[C@H](Cc1ccccn1)[C@@H](F)CO)c1cccc(F)c1-c1cc(-c2ccc(F)cc2)[nH]n1 [Example 43-23] | 100 |
| CO[C@H](CO)[C@@H](Cc1nccs1)NC(=O)c1cccc(F)c1-c1cc(-c2ccc(F)cc2)[nH]n1 [Example 27-19] | 80 |
| CC(CO)[C@@H](Cc1ccccn1)NC(=O)c1cccc(F)c1-c1cc(-c2ccc(F)cc2)[nH]n1 (some centres unmarked) [Example 1-164] | 38 |
| CCO[C@H](CO)[C@@H](Cc1ccccn1)NC(=O)c1cccc(F)c1-c1cc(-c2ccc(F)cc2)[nH]n1 [Example 43-15] | 73 |
| COC[C@@H](O)[C@@H](Cc1ccccn1)NC(=O)c1cccc(F)c1-c1cc(-c2ccc(F)cc2)[nH]n1 [Example 27-4] | 72 |
| COC[C@@H](O)[C@@H](Cc1ccccn1)NC(=O)c1cccc(F)c1-c1n[nH]c(-c2ccc(F)cc2)c1F [Example 1-213] | 68 |
| CO[C@H](CO)[C@@H](Cc1ncccn1)NC(=O)c1cccc(F)c1-c1cc(-c2ccc(Cl)cc2)[nH]n1 [Example 1-242] | 73 |
| O=C(N[C@H](Cc1ccccn1)C(F)(F)CO)c1cccc(F)c1-c1cc(-c2ccc(F)cc2)[nH]n1 [Example 50-5] | 100 |
| CO[C@H](CO)[C@@H](Cc1ccccn1)NC(=O)c1ccccc1-c1n[nH]c(-c2ccc(Cl)cc2)c1F [Example 43-18] | 85 |
| CO[C@H](CO)[C@@H](Cc1cscn1)NC(=O)c1cccc(F)c1-c1cc(-c2ccc(F)cc2)[nH]n1 [Example 27-21] | 32 |

Same assay, conditions: female SD rats, oral dose 3 mg/kg, icilin 1 mg/kg i.p. 1 hour after dosing, shakes counted for 5 minutes

| SMILES | % inhibition of Wet-Dog Shake [%] |
| --- | --- |
| O=C(N[C@@H](CCO)Cc1ccccn1)c1cccc(Cl)c1-c1cc(-c2ccc(F)cc2)[nH]n1 [Example 36-1, 3-Chloro-2-[5-(4-fluorophenyl)-1H-pyrazol-3-yl]-N-[(2R)-4-hydroxy-1-(pyridin-2-yl)butan-2-yl]benzamide] | 39 |
| O=C(N[C@@H](CO)Cc1ncccc1C(F)(F)F)c1cccc(F)c1-c1cc(-c2ccc(F)cc2)[nH]n1 [Example 1-197] | 44 |
| O=C(N[C@@H](CCO)C(O)c1ccccn1)c1ccccc1-c1n[nH]c(-c2ccc(F)cc2)c1F (some centres unmarked) [Example 1-206] | 55 |
| O=C(N[C@H](Cn1cccn1)[C@@H](F)CO)c1cccc(F)c1-c1cc(-c2ccc(F)cc2)[nH]n1 [Example 50-11] | 100 |
| O=C(N[C@@H](CCO)Cc1ccccn1)c1cccc(F)c1-c1cc(-c2ccc(Cl)cc2)[nH]n1 [Example 1-131] | 94 |
| O=C(N[C@@H](CO)Cc1ncccn1)c1cccc(F)c1-c1cc(-c2ccc(F)cc2)[nH]n1 [Example 1-174] | 60 |
| O=C(N[C@H](Cn1cccn1)[C@H](F)CO)c1cccc(Cl)c1-c1cc(-c2ccc(F)cc2)[nH]n1 [Example 43-45] | 40 |
| O=C(N[C@H](Cc1ccccn1)C[C@H](O)CO)c1cccc(F)c1-c1cc(-c2ccc(Cl)cc2)[nH]n1 [Example 54-7] | 41 |
| C[C@H](O)C[C@H](NC(=O)c1cccc(F)c1-c1cc(-c2ccc(F)cc2)[nH]n1)C(O)c1ccccn1 (some centres unmarked) [Example 54-4] | 50 |
| O=C(N[C@@H](CO)Cc1ccccn1)c1ccccc1-c1cc(-c2ccc(Cl)cc2)[nH]n1 [Example 1-59] | 46 |
| C[C@@](Cc1ccccc1)(NC(=O)c1ccccc1-c1cc(-c2ccc(F)cc2)[nH]n1)C(N)=O [Example 24-3] | 46 |
| O=C(N[C@H](Cn1cccn1)[C@@H](O)CF)c1cccc(F)c1-c1cc(-c2ccc(F)cc2)[nH]n1 [Example 50-8] | 82 |
| C[C@](O)(CO)[C@@H](Cc1ccccn1)NC(=O)c1cccc(Cl)c1-c1cc(-c2ccc(F)cc2)[nH]n1 [Example 1-218] | 40 |
| COC[C@@H](O)[C@@H](Cc1ccccn1)NC(=O)c1cccc(Cl)c1-c1cc(-c2ccc(F)cc2)[nH]n1 [Example 27-5] | 52 |
| O=C(N[C@@H](CO)Cc1ccccn1)c1cccc(F)c1-c1cc(-c2ccc(Cl)cc2)[nH]n1 [Example 1-137] | 84 |
| COC(c1ccccn1)[C@H](CO)NC(=O)c1cccc(F)c1-c1cc(-c2ccc(F)cc2)[nH]n1 (some centres unmarked) [Example 43-11] | 88 |
| COC(c1ccccn1)[C@@H](NC(=O)c1cccc(F)c1-c1cc(-c2ccc(F)cc2)[nH]n1)[C@H](O)CO (some centres unmarked) [Example 54-19] | 68 |

| SMILES | % inhibition of Wet-Dog Shake [%] |
| --- | --- |
| CC(C)(O)[C@@H](Cc1ccccn1)NC(=O)c1cccc(F)c1-c1cc(-c2ccc(F)cc2)[nH]n1 [Example 33-1, 3-Fluoro-2-[-5-(4-fluorophenyl)-1H-pyrazol-3-yl]-N-[(2R)-3-hydroxy-3-methyl-1-(pyridin-2-yl)butan-2-yl]benzamide] | 100 |
| C[C@@](O)(CO)[C@@H](Cc1ccccn1)NC(=O)c1ccccc1-c1cc(-c2ccc(F)cc2)[nH]n1 [Example 1-228] | 97 |
| CC(CO)[C@@H](Cc1ccccn1)NC(=O)c1cccc(F)c1-c1cc(-c2ccc(Cl)cc2)[nH]n1 (some centres unmarked) [Example 1-162] | 48 |
| O=C(N[C@H](Cc1ccccn1)[C@@H](O)CO)c1cccc(F)c1-c1cc(-c2ccc(F)cc2)[nH]n1 [Example 54-6] | 47 |
| O=C(N[C@@H](Cc1ccccn1)[C@H](F)CO)c1cccc(F)c1-c1cc(-c2ccc(F)cc2)[nH]n1 [Example 43-25] | 100 |
| O=C(NCC(O)c1ccccn1)c1cccc(F)c1-c1cc(-c2ccc(F)cc2)[nH]n1 (centres unmarked) [Example 1-194] | 60 |
| O=C(N[C@@H](CO)C(O)c1ccccn1)c1ccccc1-c1n[nH]c(-c2ccc(F)cc2)c1F (some centres unmarked) [Example 1-205] | 70 |
| O=C(N[C@H](Cc1ncccn1)[C@@H](O)CF)c1cccc(F)c1-c1cc(-c2ccc(F)cc2)[nH]n1 [Example 50-2] | 89 |
| CC(O)[C@@H](Cc1ccccn1)NC(=O)c1cccc(F)c1-c1cc(-c2ccc(F)cc2)[nH]n1 (some centres unmarked) [Example 1-124] | 42 |
| O=C1OC[C@H]([C@@H](Cc2ccccn2)NC(=O)c2cccc(F)c2-c2cc(-c3ccc(F)cc3)[nH]n2)O1 [Example 47-2] | 78 |
| CC(C)(O)[C@@H](Cc1ccccn1)NC(=O)c1cccc(Cl)c1-c1cc(-c2ccc(F)cc2)[nH]n1 [Example 33-3] | 32 |
| CO[C@H](CO)[C@@H](Cc1ncccc1C#N)NC(=O)c1cccc(F)c1-c1cc(-c2ccc(F)cc2)[nH]n1 [Example 27-16] | 56 |
| O=C(NC(CCO)Cc1ccccn1)c1ccccc1-c1cc(-c2ccc(F)cc2)[nH]n1 (centres unmarked) [Example 26-2] | 69 |
| Cn1ccnc1C[C@H](CO)NC(=O)c1cccc(F)c1-c1cc(-c2ccc(F)cc2)[nH]n1 [Example 1-183] | 36 |
| O=C(N[C@H](Cc1ncccn1)C(F)(F)CO)c1cccc(F)c1-c1cc(-c2ccc(F)cc2)[nH]n1 [Example 50-4] | 100 |
| O=C(N[C@@H](CO)C(F)c1ccccn1)c1cccc(F)c1-c1cc(-c2ccc(F)cc2)[nH]n1 (some centres unmarked) [Example 1-231] | 88 |
| CO[C@H](CO)[C@@H](Cc1ccccn1)NC(=O)c1cccc(F)c1-c1cc(-c2ccc(F)cc2F)[nH]n1 [Example 43-34] | 100 |

Same assay, conditions: female SD rats, oral dose 10 mg/kg, icilin 1 mg/kg i.p. 1 hour after dosing, shakes counted for 5 minutes

| SMILES | % inhibition of Wet-Dog Shake [%] |
| --- | --- |
| NC(=O)C[C@@H](Cc1ccccc1)NC(=O)c1cccc(F)c1-c1cc(-c2ccc(F)cc2)[nH]n1 [Example 1-128] | 59 |
